Experimental data published in patent US9732091B2, “Tryptophanol-derived oxazoloisoindolinones: small-molecule P53 activators” (UNIVERSIDADE DO PORTO, priority 2013, dated 2017).

What was measured:
HCT116 p53^+/+ cells [1] = experiment: apoptosis by flow cytometry (FITC-Annexin V and propidium iodide), HCT116 p53^+/+; assay type: cell-based, human; settings: GI50 and double GI50, 24 hours
Procedure: (§1) Apoptosis was analyzed by flow cytometry using FITC-Annexin V and propidium iodide. The effect of compounds was analyzed after 24 hours treatment using the concentration of GI50 and double GI50. Histograms represent one of two independent experiments; quantification of cells in apoptosis represents the mean±S.E.M. of two independent experiments.

HCT116 p53^+/+ cells [2] = experiment: cell cycle analysis by flow cytometry (propidium iodide), HCT116 p53^+/+; assay type: cell-based, human; settings: double GI50, 24 hours
Procedure: FIG. 3 illustrates the effect of SLMP53-1 on cell cycle progression of HCT116 p53^+/+ cells. Cell cycle phases were analyzed by flow cytometry using propidium iodide and quantified using ModFit LT software (Verity Software House Inc., Topsham, USA). Effect of compounds (double GI50) was analyzed after 24 hours treatment. Histograms represent one of two independent experiments; quantification of cell cycle phases represents the mean±S.E.M. of two independent experiments.

MDA-MB-231 (p53R280K) = experiment: SRB growth inhibition assay in MDA-MB-231 breast cancer cells; assay type: cell-based, human; settings: 48 hours incubation, mean±S.E.M.
Procedure: (§2) Tumor cells were plated at 7.5×10^3 cells/well in 96-well plates and incubated for 24 hours. Cells were then exposed to serial dilutions of SLMP53-1, CP-31398 or PRIMA-1 (from 1.85 to 150 μM). The effect of the compounds was analyzed following 48 hours incubation period, using the sulforhodamine B (SRB) assay. The solvent DMSO corresponding to the maximum concentration used in these assays (0.025%) was included as control. The GI50 value, which is the concentration of compound that causes 50% growth inhibition, was calculated for the tested compounds. Results are the mean±S.E.M. of three independent experiments.

HCT116 p53^+/+ = experiment: SRB growth inhibition assay in HCT116 p53^+/+ colon carcinoma cells; assay type: cell-based, human; settings: for GI50: HCT116 p53^+/+, 48 hours incubation, SRB, mean±S.E.M.
Procedure: as §2, with “5.0×10^3” for “7.5×10^3”, “incubation,” for “incubation period,”, “value,” for “value, which is”

HCT116 p53^−/− = experiment: SRB growth inhibition assay in HCT116 p53^−/− colon carcinoma cells; assay type: cell-based, human; settings: 48 hours incubation, mean±S.E.M.
Procedure: as §2, with “5.0×10^3” for “7.5×10^3”, “incubation,” for “incubation period,”, “value,” for “value, which is”

[3] = Rippin et al. 2002; Jonhson et al. 2011; cited from earlier work
MDA-MB-231 cells = experiment: apoptosis by flow cytometry (FITC-Annexin V and propidium iodide), MDA-MB-231; assay type: cell-based, human; settings: GI50, 24 hours
Procedure: as §1, with “of” for “of GI50 and double”

human wt p53 = biological target: T1, human wt p53 (Homo sapiens, UniProt P04637); experiment: yeast-based assay, yeast cells expressing human wt p53 (growth by CFU counts, cell cycle, actin Western blot)
T1 construct: expressed in transfected cells
T1 sequence (P04637 whole entry): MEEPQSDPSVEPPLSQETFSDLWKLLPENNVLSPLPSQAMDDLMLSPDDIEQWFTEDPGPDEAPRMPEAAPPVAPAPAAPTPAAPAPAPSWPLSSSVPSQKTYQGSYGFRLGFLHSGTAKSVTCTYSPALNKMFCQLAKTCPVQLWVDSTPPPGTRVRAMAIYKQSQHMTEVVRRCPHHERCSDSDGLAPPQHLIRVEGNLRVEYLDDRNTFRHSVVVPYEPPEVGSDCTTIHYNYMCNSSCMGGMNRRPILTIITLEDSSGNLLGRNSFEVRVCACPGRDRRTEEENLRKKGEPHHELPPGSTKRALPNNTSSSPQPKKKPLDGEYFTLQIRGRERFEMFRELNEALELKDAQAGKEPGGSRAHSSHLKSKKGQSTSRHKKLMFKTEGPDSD
Procedure: FIG. 1 illustrates that SLMP53-1 and SLMP53-2 increase the p53 effects in yeast. Yeast cells expressing human wt p53 and transformed with the empty vector (control yeast) were incubated in selective induction medium in the presence of 0.1-25 μM compound or DMSO only, for 42 hours. (A) Effect of 10 μM SLMP53-1 and SLMP53-2 on the p53-induced yeast growth inhibition. Results are plotted setting as one unit the p53-induced growth inhibition in the presence of DMSO only. Growth was estimated by colony-forming unit (CFU) counts. […] (B) Dose-response curve for SLMP53-1 in yeast cells expressing human p53 and control yeast. Cells were incubated in selective medium with 0.1-25 μM of SLMP53-1 or DMSO only. Results are plotted setting as 100% growth inhibition the number of CFU obtained in the presence of DMSO only. Data are mean±S.E.M. of three independent experiments (*P<0.05; unpaired Student's t-test). (C) Effect of SLMP53-1 and SLMP53-2 on p53-induced S-phase cell cycle arrest in yeast. Cell cycle phases were analyzed by flow cytometry using Sytox Green and quantified using ModFit LT software; quantification of cell cycle phases represent the mean values. (D) Increase of p53-induced actin protein expression levels by SLMP53-1 and SLMP53-2 in yeast expressing p53. Western Blot band intensity was quantified using Pgk1p as loading control (with Bio-Profile Bio-1D++ software).
Using a yeast-based screening approach, the chiral compounds SLMP53-1 and SLMP53-2 were identified as potential activators of wt p53, from a chemical library of tryptophanol-derived oxazoloisoindolinones with general formula (I) shown in FIG. 1, wherein X, R^1, R^2, R^3, R^4, R^5, R^6, R^7, R^8, R^9 and R^10 are as defined herein, as well as their stereoisomers, enantiomers, ra.cemates, tautomers thereof or mixtures thereof; or a pharmaceutically acceptable salt, solvate or prodrug thereof. In the yeast cell model, compounds SLMP53-1 and SLMP53-2 increased the previously reported (Coutinho et al. FEBS Lett. 2009, 583, 3582-3588) p53-induced growth inhibition (FIGS. 1A and B) and S-phase cell cycle arrest (FIG. 1C).

[4] = HCT116 p53^+/+ vs HCT116 p53^−/−

GI50 in HCT116 p53^+/+ cells lower than in HCT116 p53^−/− cells (HCT116 p53^+/+; [4]) | p53-induced growth inhibition (human wt p53; yeast expressing human wt p53, 10 μM, 42 hours, vs DMSO only) | p53-induced S-phase cell cycle arrest (human wt p53; yeast expressing human wt p53, flow cytometry) | actin protein levels (human wt p53; yeast expressing p53, Western blot, vs DMSO only) | Compound | apoptosis (HCT116 p53^+/+ cells [1]) | cell cycle progression (HCT116 p53^+/+ cells [2]) | GI50 (MDA-MB-231 (p53R280K)) | p53 dependence of anti-proliferative effect (HCT116 p53^+/+; [4]) | GI50 (HCT116 p53^+/+) | GI50 (HCT116 p53^−/−) | cytotoxic and genotoxic effects (reported) [3] | apoptosis (MDA-MB-231 cells)
2 fold | – | – | – | COc1ccc(/C=C/c2nc(NCCCN(C)C)c3ccccc3n2)cc1 [CP-31398] | apoptotic cell death | G0/G1-phase cell arrest | 2.3 ± 0.9 µM | p53-dependent anti-proliferative effect | 3.4 ± 0.1 µM | 7.3 ± 0.6 µM | cytotoxic and genotoxic effects have been reported | apoptotic cell death
– | – | – | – | O=C1C2CCN(CC2)C1(CO)CO [PRIMA-1] | – | – | 29.8 ± 3.1 µM | p53-independent | 19.9 ± 4 µM | 13.1 ± 2 µM | – | apoptotic cell death
– | increased | increased | increased the actin protein levels | C[C@@]12OC[C@@H](Cc3c[nH]c4ccccc34)N1C(=O)c1ccccc12 [SLMP53-2] | – | – | – | – | – | – | – | –
